Our source for the IC50 values is ChEMBL document CHEMBL3886519, “Pyrazolo[1,5a]pyrimidine derivatives as IRAK4 modulators” (2016).

Test [1] has as its target T1, Interleukin-1 receptor-associated kinase 4 (Homo sapiens, UniProt Q9NWZ3).
T1 sequence (Q9NWZ3 whole entry): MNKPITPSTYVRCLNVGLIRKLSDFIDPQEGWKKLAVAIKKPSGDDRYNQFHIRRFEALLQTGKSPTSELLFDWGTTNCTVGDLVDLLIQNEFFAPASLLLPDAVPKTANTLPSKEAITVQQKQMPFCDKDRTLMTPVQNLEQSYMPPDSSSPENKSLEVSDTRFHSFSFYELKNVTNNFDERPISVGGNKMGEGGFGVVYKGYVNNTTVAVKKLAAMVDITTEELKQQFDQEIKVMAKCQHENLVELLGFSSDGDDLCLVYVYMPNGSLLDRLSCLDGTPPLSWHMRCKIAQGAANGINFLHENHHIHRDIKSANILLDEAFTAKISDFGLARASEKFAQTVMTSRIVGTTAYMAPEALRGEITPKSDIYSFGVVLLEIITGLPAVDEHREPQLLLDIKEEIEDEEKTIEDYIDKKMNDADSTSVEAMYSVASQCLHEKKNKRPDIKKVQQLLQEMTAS
As to the kind of experiment: (§1) In vitro IRAK-1 and IRAK-4 Assay: Purified recombinant IRAK-4 protein was incubated with 250 uM synthetic peptide([…]) in 30 ul of kinase buffer including (20 mM MOPS pH7.2, 25 mM beta glycerol phosphate, 5 mM EGTA, 1 mM sodium orthovanadate, 1 mM DTT, 50 uM ATP, 20 mM MgCl2, 10 uCi gamma-33P, 0.1% BSA) for the indicated time. For purified recombinant IRAK-1 protein kinase assay, 50 uM ATP was used. A 25 ul aliquot of the reaction mixture was transferred on to p81 phosphocellulose squares (Upstate Biotechnology, Lake Placid, N.Y.). The assay squares were washed three times with 0.75% phosphoric acid and once with acetone. Enzyme activity was measured by determining the bound radioactivity by liquid scintillation counting.

Test [2] addresses Tyrosine-protein kinase SYK (Homo sapiens, UniProt P43405). As to the kind of experiment: In vitro SYK Kinase Assay: SYK activity is measured by phosphorylation of a peptide substrate (Biotin-[…]) with [gamma-33P] ATP. The enzyme reaction was conducted at 20 uM ATP with 0.05 uCi [gamma-33P]ATP (2 uCi for 40 ul assay) and 10 uM peptide substrate at final volume of 40 ul in buffer containing 50 mM Hepes, pH 7.2, 1 mM dithiothreitol, 10 mM MgCl2, 100 uM Na3VO4, 0.1% BSA and 10% DMSO. The enzyme assay was carried out with human full length SYK in the presence or absence of ten compound concentrations. SYK and compound were pre-incubated for 10 minutes. Then, the enzymatic reaction was initiated by addition of ATP and peptide substrate. The reaction mixture was incubated at room temperature for 30 minutes. At the end of incubation, the reaction was terminated by transferring 25 ul of the reaction mixture to 100 ul of 10% streptavidin slurry containing 100 mM EDTA. The reaction product was captured on the affinity resin and sequentially washed on a filtration plate (Millipore, MABVNOB50) with 2M NaCl, 2M M NaCl in 1% phosphoric acid and water to remove free radio nucleotide. Then the incorporation of 33P into peptide substrate was quantified on a microplate scintillation counter.

For test [3], the target named is Interleukin-1 receptor-associated kinase 1 (Homo sapiens, UniProt P51617). The description is as §1.
Sequence of Interleukin-1 receptor-associated kinase 1 (P51617 whole entry): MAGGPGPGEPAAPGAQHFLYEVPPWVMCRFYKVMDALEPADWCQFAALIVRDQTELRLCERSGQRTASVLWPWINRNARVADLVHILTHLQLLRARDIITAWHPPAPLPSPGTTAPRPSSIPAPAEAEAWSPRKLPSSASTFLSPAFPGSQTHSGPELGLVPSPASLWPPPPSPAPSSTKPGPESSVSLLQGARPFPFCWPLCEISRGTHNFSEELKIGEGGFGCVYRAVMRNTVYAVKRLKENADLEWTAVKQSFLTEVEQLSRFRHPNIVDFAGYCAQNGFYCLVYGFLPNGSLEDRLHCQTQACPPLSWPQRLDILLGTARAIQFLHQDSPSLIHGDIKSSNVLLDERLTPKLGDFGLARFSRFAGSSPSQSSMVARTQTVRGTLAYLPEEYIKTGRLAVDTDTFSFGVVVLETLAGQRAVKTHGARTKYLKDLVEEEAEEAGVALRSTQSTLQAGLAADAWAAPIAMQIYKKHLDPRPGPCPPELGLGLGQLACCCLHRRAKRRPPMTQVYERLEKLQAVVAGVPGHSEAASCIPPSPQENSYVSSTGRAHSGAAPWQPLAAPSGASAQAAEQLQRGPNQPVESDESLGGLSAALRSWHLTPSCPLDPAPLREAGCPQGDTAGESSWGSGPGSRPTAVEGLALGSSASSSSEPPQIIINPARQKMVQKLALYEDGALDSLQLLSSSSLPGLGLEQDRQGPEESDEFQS

For orientation: IC50 means the concentration at which inhibition is half-maximal. As to `COc1cc2ncccc2cc1NC(=O)c1csc2cncnc12`, the IC50 in test [1] was 18 nM; in test [2] it was 622 nM.

As for `CC(O)C1CCN(c2ccc(Cl)cc2NC(=O)c2cnn3cccnc23)CC1` (stereo not given), the IC50 came out at 5 nM in test [1] and 970 nM in test [3].

Regarding `O=C(Nc1cc2cccnc2cc1OC1CCC(O)CC1)c1csc2cncnc12` (stereo not given), the results for the IC50 in test [1] and in test [3] were 24 nM and 123 nM, respectively.

For `COc1cc2nc(NCCO)ccc2cc1NC(=O)c1csc2cncnc12`, the IC50 in test [1] came out at 10 nM; in test [3], 200 nM.

For `O=C(Nc1cc2cccnc2cc1N1CCCCC1)c1csc2cncnc12`, the IC50 in test [1] was found to be 12 nM.

Turning to `O=C(Nc1cc(Cl)ccc1OC1CCC(O)CC1)c1cnn2cc(O)cnc12` (stereo not given), the IC50 was 23 nM in test [1] and 163 nM in test [3].

In the case of `O=C(Nc1cc2cccnc2cc1O[C@H]1CC[C@@H](O)CC1)c1csc2cncnc12`, the results for the IC50 in test [1] and in test [3] were 7 nM and 70 nM, respectively.

Consider `COc1cc2ncccc2cc1NC(=O)c1cnn2cc(O)cnc12`, for which the IC50 in test [1] is 9 nM; in test [3], 200 nM.
